One experiment addresses T1, DOCK2DHR-2 (lobe B and lobe C of the DHR-2 domain of DOCK2) (Homo sapiens, UniProt Q92608).
T1 construct: polypeptide fragments corresponding to a DHR-2 domain including the lobe B and the lobe C of DOCK2; Histidine-SUMO (N); made in house; host or cells: E. coli Arctic express DE3 (pET28a); Rac in E. coli BL21 DE3 (pGEX-6P-1)
T1 sequence (Q92608 1196-1622): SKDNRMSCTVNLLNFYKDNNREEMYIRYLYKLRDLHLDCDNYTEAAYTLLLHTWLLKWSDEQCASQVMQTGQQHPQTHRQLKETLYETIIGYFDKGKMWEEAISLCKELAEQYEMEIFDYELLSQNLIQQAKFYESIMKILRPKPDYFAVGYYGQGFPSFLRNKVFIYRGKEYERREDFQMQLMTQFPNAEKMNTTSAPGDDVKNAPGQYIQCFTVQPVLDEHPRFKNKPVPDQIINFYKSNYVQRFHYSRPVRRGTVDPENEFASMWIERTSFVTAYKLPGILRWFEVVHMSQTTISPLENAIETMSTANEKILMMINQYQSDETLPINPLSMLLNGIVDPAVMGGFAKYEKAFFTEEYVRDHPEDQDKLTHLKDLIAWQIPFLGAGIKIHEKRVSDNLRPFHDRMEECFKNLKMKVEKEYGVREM
Put plainly: in-vitro GEF assay, Rac activation by DOCK2 DHR-2 domain with various steroid compounds (Experimental Example 2). It counts as biochemical. As to conditions: Experimental Example 2, Table 1; read-out: IC50 against the Rac activation by DOCK2DHR-2. On the procedure:
An examination was performed using various steroid compounds to test their effects on the Rac activation induced by proteins composed of the lobe B and the lobe C of the DHR-2 domain of DOCK2.
As the steroid compounds, cholesterol 3-sulfate (hereinafter, referred to as “C3S” in some cases), cholesterol, cholesterol 3-acetate (hereinafter, referred to as “C3A” in some cases), pregnenolone 3-sulfate (hereinafter, referred to as “PREG3S” in some cases), dehydroepiandrosterone (hereinafter, referred to as “DHEA” in some cases), dehydroepiandrosterone 3-sulfate (hereinafter, referred to as “DHEA3S” in some cases), estrone 3-sulfate (hereinafter, referred to as “Estrone3S” in some cases), estriol 3-sulfate (hereinafter, referred to as “Estriol3S” in some cases), and estradiol 3-sulfate (hereinafter, referred to as “Estradiol3S” in some cases) were used.
More specifically, a DOCK2-DHR-2 domain protein prepared by the same method as described above was incubated for 20 minutes at room temperature in the presence of various steroid compounds at a predetermined concentration dissolved in DMSO or in the presence of DMSO alone (control) under the shielded condition from light, thereby preparing a pretreated substance of GEF. The concentration of DMSO was adjusted such that it became 3% (1% in the final reaction solution) in all samples. Then, by in-vitro GEF assay in which Rac and Bodipy-FL-GTP prepared by the same method as described above were used, Rac activation by the DHR-2 domain was measured.
Broadly, the IC50 is the point on the concentration scale where inhibition reaches its midpoint. On to `CC(C)CCC[C@@H](C)[C@H]1CC[C@H]2[C@@H]3CC=C4C[C@@H](O)CC[C@]4(C)[C@H]3CC[C@]12C` [Cholesterol, cholesterol], for which the IC50 was more than 200 µM.
As for `CC(=O)O[C@H]1CC[C@@]2(C)C(=CC[C@H]3[C@@H]4CC[C@H]([C@H](C)CCCC(C)C)[C@@]4(C)CC[C@@H]32)C1` [C3A, cholesterol 3-acetate], the IC50 was more than 200 µM.
As to `C[C@]12CC[C@@H]3c4ccc(OS(=O)(=O)O)cc4CC[C@H]3[C@@H]1CCC2=O` [Estrone3S, estrone 3-sulfate], the IC50 is more than 200 µM.
`CC(=O)C1CCC2C3CC=C4CC(OS(=O)(=O)O)CCC4(C)C3CCC12C` (centres unmarked) [PREG3S, pregnenolone 3-sulfate]: the IC50 amounted to 76.6 µM.
On the same count and under the same terms, as for `C[C@]12CC[C@H](OS(=O)(=O)O)CC1=CC[C@@H]1[C@@H]2CC[C@]2(C)C(=O)CC[C@@H]12` [DHEA3S, dehydroepiandrosterone 3-sulfate], the figure is more than 200 µM; as for `C[C@]12CC[C@@H]3c4ccc(OS(=O)(=O)O)cc4CC[C@H]3[C@@H]1C[C@@H](O)[C@@H]2O` [Estriol3S, estriol 3-sulfate], more than 200 µM.
As to `C[C@]12CC[C@@H]3c4ccc(OS(=O)(=O)O)cc4CC[C@H]3[C@@H]1CC[C@@H]2O` [Estradiol3S, estradiol 3-sulfate], the half-maximal inhibitory concentration (IC50) is more than 200 µM.

Staying with this experiment, now noted: IC50 against the Rac activation by DOCK2DHR-2, Experimental Example 2, Table 1.
As to `C[C@]12CC[C@H](O)CC1=CC[C@@H]1[C@@H]2CC[C@]2(C)C(=O)CC[C@@H]12` [DHEA, dehydroepiandrosterone], the half-inhibitory concentration (IC50) is more than 200 µM.

The record behind these values is patent publication US12213984B2, “Immunoregulatory agent” (KYUSHU UNIVERSITY, NATIONAL UNIVERSITY CORPORATION, priority 2015, dated 2025).
